The results in this text go back to patent publication US9499538B2, “Estrogen receptor modulators and uses thereof” (Seragon Pharmaceuticals, Inc., priority 2012, dated 2016).

The structures appear in SMILES notation.

One test concerns the target T1, ER-α in MCF-7 cells (Homo sapiens, UniProt P03372).
T1 construct: endogenous in cells; host or cells: MCF-7
T1 sequence (P03372 1-595): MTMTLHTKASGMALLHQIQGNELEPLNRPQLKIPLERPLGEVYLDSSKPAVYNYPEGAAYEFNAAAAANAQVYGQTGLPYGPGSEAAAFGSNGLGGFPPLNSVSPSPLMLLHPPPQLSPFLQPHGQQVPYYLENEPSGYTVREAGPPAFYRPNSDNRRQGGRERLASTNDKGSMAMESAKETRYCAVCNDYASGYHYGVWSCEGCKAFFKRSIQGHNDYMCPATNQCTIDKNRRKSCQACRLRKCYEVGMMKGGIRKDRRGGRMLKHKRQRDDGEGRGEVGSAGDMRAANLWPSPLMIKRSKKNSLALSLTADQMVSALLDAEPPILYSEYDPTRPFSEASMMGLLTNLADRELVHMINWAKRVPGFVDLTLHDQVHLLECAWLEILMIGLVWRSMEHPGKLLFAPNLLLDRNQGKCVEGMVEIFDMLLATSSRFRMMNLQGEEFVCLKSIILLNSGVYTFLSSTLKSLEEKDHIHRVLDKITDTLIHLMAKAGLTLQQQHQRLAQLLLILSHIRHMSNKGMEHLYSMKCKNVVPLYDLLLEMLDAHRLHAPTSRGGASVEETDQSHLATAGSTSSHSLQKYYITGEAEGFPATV
The test can be described thus: Breast Cancer Cell ER-α In Cell Western Assay (SP1). The format is cell-based. The note with it: 4 or 24 hr post compound addition; for Emax: MCF7, SP1 antibody, read-out: ER-α In Cell Western Assay (SP1) Max Response; for DC50: SP1 antibody, read-out: ER-α In Cell Western Assay (SP1) IC50. In a few lines:
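ER-α levels quantified by in-cell western: SP1 signal normalised to DRAQ5 DNA stain, relative to untreated cells (% ER). Compounds at 0.3–0.000003 μM final, 11-point semilog series, 4 or 24 h exposure of MCF-7 cells grown in charcoal-stripped serum.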

Another test has as its system MCF-7 cells. As to the kind of experiment: Breast Cancer Cell Viability Assays (MCF-7, CellTiter-Glo). The format is cell-based. As to conditions: 5 days' compound exposure; for IC50: Homo sapiens, MCF7, 120 h. In a few lines: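 Percent viability, background-subtracted against untreated wells, was taken from CellTiter-Glo luminescence after 5 days' exposure of MCF-7 cells. Compounds were tested at eleven semilog concentrations, final 0.3–0.000003 μM, in RPMI containing 10% FBS.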
(In general: ATP-based viability assays read luminescence as a measure of living cells.)

Usually IC50 stands for the point on the concentration scale where inhibition reaches its midpoint. A high value points to a need for much substance. For the compound `CC/C(=C(/c1ccc(/C=C/C(=O)O)cc1)c1ccc2[nH]nc(F)c2c1)c1ncccc1C(F)(F)F` [Example 263, (E)-3-(4-((E)-1-(3-Fluoro-1H-indazol-5-yl)-2-(3-(trifluoromethyl)pyridin-2-yl)but-1-en-1-yl)phenyl)acrylic acid], on ER-α in MCF-7 cells, the Emax was at least 40% and the DC50 was at most 100 nM. Also, in the test on MCF-7 cells, the “MCF7 Viability Assay Max Response” value is “++ (++ = a single % value ≧ 40%)” and the IC50 was at most 100 nM.

Take `CC/C(=C(/c1ccc(/C=C/C(=O)O)cc1)c1ccc2[nH]nc(F)c2c1)c1ncc(Cl)cc1Cl` [Example 264, (E)-3-(4-((E)-2-(3,5-Dichloropyridin-2-yl)-1-(3-fluoro-1H-indazol-5-yl)but-1-en-1-yl)phenyl)acrylic acid]: on ER-α in MCF-7 cells, the Emax is at least 40% and the DC50 is at most 100 nM. In the test with MCF-7 cells, the “MCF7 Viability Assay Max Response” value was “++ (++ = a single % value ≧ 40%)” and the half-maximal inhibitory concentration (IC50) is at most 100 nM.

For the compound `O=C(O)/C=C/c1ccc(/C(=C(\c2ccccc2)C2CCC2)c2ccc3[nH]nc(F)c3c2)cc1F` [Example 265, (E)-3-(4-((Z)-2-Cyclobutyl-1-(3-fluoro-1H-indazol-5-yl)-2-phenylvinyl)-2-fluorophenyl)acrylic acid], at ER-α in MCF-7 cells, the Emax is at least 40% and the DC50 was at most 100 nM. Besides, in the test with MCF-7 cells, the “MCF7 Viability Assay Max Response” value was “++ (++ = a single % value ≧ 40%)” and the IC50 was at most 100 nM.

For `C/C(=C\C(=O)O)c1ccc(/C(=C(\c2ccccc2)C2CCC2)c2ccc3[nH]nc(F)c3c2)cc1` [Example 266, (E)-3-(4-((E)-2-Cyclobutyl-1-(3-fluoro-1H-indazol-5-yl)-2-phenylvinyl)phenyl)but-2-enoic acid], on ER-α in MCF-7 cells, the Emax is at least 40% and the DC50 was at most 100 nM. In addition, in the test with MCF-7 cells, the “MCF7 Viability Assay Max Response” value is on record as “++ (++ = a single % value ≧ 40%)” and the IC50 is at most 100 nM.

Regarding `C/C(=C\c1ccc(/C(=C(\c2ccccc2)C2CCC2)c2ccc3[nH]nc(F)c3c2)cc1)C(=O)O` [Example 267, (E)-3-(4-((E)-2-Cyclobutyl-1-(3-fluoro-1H-indazol-5-yl)-2-phenylvinyl)phenyl)-2-methylacrylic acid], at ER-α in MCF-7 cells, the Emax is at least 40% and the DC50 is at most 100 nM. Besides, in the test on MCF-7 cells, the “MCF7 Viability Assay Max Response” value is “++ (++ = a single % value ≧ 40%)” and the IC50 is at most 100 nM.

Regarding `O=C(O)/C=C/c1ccc(/C(=C(\c2ccc(Cl)cc2Cl)C2CCC2)c2ccc3[nH]nc(F)c3c2)cn1` [Example 268, (E)-3-(5-((Z)-2-Cyclobutyl-2-(2,4-dichlorophenyl)-1-(3-fluoro-1H-indazol-5-yl)vinyl)pyridin-2-yl)acrylic acid], on ER-α in MCF-7 cells, the Emax is at least 40% and the DC50 is at most 100 nM. Also, in the test with MCF-7 cells, the “MCF7 Viability Assay Max Response” value is listed as “++ (++ = a single % value ≧ 40%)” and the IC50 is at most 100 nM.

Consider `O=C(O)/C=C/c1ccc(/C(=C(\c2ccc(F)cc2C(F)(F)F)C2CCC2)c2ccc3[nH]nc(F)c3c2)cn1` [Example 269, (E)-3-(5-((Z)-2-Cyclobutyl-1-(3-fluoro-1H-indazol-5-yl)-2-(4-fluoro-2-(trifluoromethyl)phenyl)vinyl)pyridin-2-yl)acrylic acid], for which, at ER-α in MCF-7 cells, the Emax is at least 40% and the DC50 is at most 100 nM. In the test on MCF-7 cells, the “MCF7 Viability Assay Max Response” value is recorded as “++ (++ = a single % value ≧ 40%)” and the IC50 is at most 100 nM.

`COc1ccc(/C(=C(\c2ccc(/C=C/C(=O)O)nc2)c2ccc3[nH]nc(F)c3c2)C2CCC2)c(Cl)c1` [Example 270, (E)-3-(5-((Z)-2-(2-Chloro-4-methoxyphenyl)-2-cyclobutyl-1-(3-fluoro-1H-indazol-5-yl)vinyl)pyridin-2-yl)acrylic acid]: on ER-α in MCF-7 cells, the Emax is at least 40% and the DC50 was at most 100 nM. In the test with MCF-7 cells, the “MCF7 Viability Assay Max Response” value was “++ (++ = a single % value ≧ 40%)” and the IC50 is at most 100 nM.

On to `O=C(O)/C=C/c1ccc(/C(=C(\c2ccc(F)cc2Cl)C2CCC2)c2ccc3[nH]nc(F)c3c2)cc1F` [Example 271, (E)-3-(4-((Z)-2-(2-Chloro-4-fluorophenyl)-2-cyclobutyl-1-(3-fluoro-1H-indazol-5-yl)vinyl)-2-fluorophenyl)acrylic acid], for which, at ER-α in MCF-7 cells, the Emax is at least 40% and the DC50 is at most 100 nM. For the same compound, in the test with MCF-7 cells, the “MCF7 Viability Assay Max Response” value is “++ (++ = a single % value ≧ 40%)” and the IC50 is at most 100 nM.

Take `O=C(O)/C=C/c1ccc(/C(=C(\c2ccc(OC(F)(F)F)cc2Cl)C2CCC2)c2ccc3[nH]nc(F)c3c2)cn1` [Example 272, (E)-3-(5-((Z)-2-(2-Chloro-4-(trifluoromethoxy)phenyl)-2-cyclobutyl-1-(3-fluoro-1H-indazol-5-yl)vinyl)pyridin-2-yl)acrylic acid]: at ER-α in MCF-7 cells, the Emax was at least 40% and the DC50 is at most 100 nM. In the test with MCF-7 cells, the “MCF7 Viability Assay Max Response” value is “++ (++ = a single % value ≧ 40%)” and the IC50 was at most 100 nM.

Regarding `O=C(O)/C=C/c1ccc(/C(=C(\c2ccc(OC(F)(F)F)cc2Cl)C2CCC2)c2ccc3[nH]nc(F)c3c2)cc1` [Example 273, (E)-3-(4-((E)-2-(2-Chloro-4-(trifluoromethoxy)phenyl)-2-cyclobutyl-1-(3-fluoro-1H-indazol-5-yl)vinyl)phenyl)acrylic acid], on ER-α in MCF-7 cells, the Emax was at least 40% and the DC50 is at most 100 nM. Further, in the test with MCF-7 cells, the “MCF7 Viability Assay Max Response” value is listed as “++ (++ = a single % value ≧ 40%)” and the IC50 was at most 100 nM.

As for `O=C(O)/C=C/c1ccc(/C(=C(\c2ccc(C(F)(F)F)cc2Cl)C2CCC2)c2ccc3scnc3c2)cc1` [Example 274, (E)-3-(4-((E)-1-(Benzo[d]thiazol-5-yl)-2-(2-chloro-4-(trifluoromethyl)phenyl)-2-cyclobutylvinyl)phenyl)acrylic acid], on ER-α in MCF-7 cells, the Emax is at least 40% and the DC50 was at most 100 nM. For the same compound, in the test on MCF-7 cells, the “MCF7 Viability Assay Max Response” value was “++ (++ = a single % value ≧ 40%)” and the IC50 was at most 100 nM.

In the case of `O=C(O)/C=C/c1ccc(/C(=C(\c2ccc(C(F)(F)F)cc2Cl)C2CCC2)c2ccc3[nH]nc(F)c3c2)cc1` [Example 275, (E)-3-(4-((E)-2-(2-Chloro-4-(trifluoromethyl)phenyl)-2-cyclobutyl-1-(3-fluoro-1H-indazol-5-yl)vinyl)phenyl)acrylic acid], at ER-α in MCF-7 cells, the Emax is at least 40% and the DC50 was at most 100 nM. Further, in the test on MCF-7 cells, the “MCF7 Viability Assay Max Response” value is “++ (++ = a single % value ≧ 40%)” and the IC50 is at most 100 nM.

In the case of `COc1ccc(/C(=C(\c2ccc(/C=C/c3noc(=O)[nH]3)cc2)c2ccc3[nH]nc(F)c3c2)C2CCC2)c(Cl)c1` [Example 276, 3-((E)-4-((E)-2-(2-Chloro-4-methoxyphenyl)-2-cyclobutyl-1-(3-fluoro-1H-indazol-5-yl)vinyl)styryl)-1,2,4-oxadiazol-5(4H)-one], on ER-α in MCF-7 cells, the Emax was at least 40% and the DC50 is at most 100 nM. Further, in the test with MCF-7 cells, the “MCF7 Viability Assay Max Response” value is given as “++ (++ = a single % value ≧ 40%)” and the 50% inhibitory concentration (IC50) was at most 100 nM.

In the case of `O=c1[nH]c(/C=C/c2ccc(/C(=C(\c3ncc(C(F)(F)F)cc3Cl)C3CCC3)c3ccc4scnc4c3)cc2)no1` [Example 277, 3-((E)-4-((E)-1-(Benzo[d]thiazol-5-yl)-2-(3-chloro-5-(trifluoromethyl)pyridin-2-yl)-2-cyclobutylvinyl)styryl)-1,2,4-oxadiazol-5(4H)-one], on ER-α in MCF-7 cells, the Emax was at least 40% and the DC50 is at most 100 nM. Further, in the test on MCF-7 cells, the “MCF7 Viability Assay Max Response” value is on record as “++ (++ = a single % value ≧ 40%)” and the IC50 is at most 100 nM.

For the compound `COc1ccc(/C(=C(\c2ccc(/C=C/c3noc(=O)[nH]3)cc2)c2ccc3scnc3c2)C2CCC2)c(Cl)c1` [Example 278, 3-((E)-4-((E)-1-(Benzo[d]thiazol-5-yl)-2-(2-chloro-4-methoxyphenyl)-2-cyclobutylvinyl)styryl)-1,2,4-oxadiazol-5(4H)-one], on ER-α in MCF-7 cells, the Emax was at least 40% and the DC50 was at most 100 nM. Further, in the test with MCF-7 cells, the “MCF7 Viability Assay Max Response” value is listed as “++ (++ = a single % value ≧ 40%)” and the IC50 was at most 100 nM.

In the case of `O=c1[nH]c(/C=C/c2ccc(/C(=C(\c3ncc(C(F)(F)F)cc3Cl)C3CCC3)c3ccc4[nH]nc(F)c4c3)cc2)no1` [Example 279, 3-((E)-4-((E)-2-(3-Chloro-5-(trifluoromethyl)pyridin-2-yl)-2-cyclobutyl-1-(3-fluoro-1H-indazol-5-yl)vinyl)styryl)-1,2,4-oxadiazol-5(4H)-one], on ER-α in MCF-7 cells, the Emax was at least 40% and the DC50 is at most 100 nM. In the test on MCF-7 cells, the “MCF7 Viability Assay Max Response” value is “++ (++ = a single % value ≧ 40%)” and the half-inhibitory concentration (IC50) was at most 100 nM.
